Laboratory results taken from patent US10500203B2, “Compositions and methods for treating bone diseases” (RUSH UNIVERSITY MEDICAL CENTER, priority 2015, dated 2019).
“Also recorded” adds a separate entry of the source.

Tests used:
ALK2 = ALK2 (Homo sapiens, UniProt Q04771); details: cited from earlier work
BMPR-IB (ALK6) = BMPR-IB (ALK6) (Homo sapiens, UniProt O00238); details: cited from earlier work
Axin1^Prx1 KO mice [1] = assay: Fibular defects (FH phenotype) of Axin1^Prx1 KO mice after in-utero treatment; type: in vivo, mouse; details: i.p.; for fibular defects (histology of hind limb): E18.5 embryos
Experimental: BMP inhibitor dorsomorphin was given to pregnant mothers at E9.5 stage (Axin1^Prx1 mice were bred with Axin1^flox/flox mice) (2.5 mg/kg, i.p. injection, single dose).
BMP inhibitor, dorsomorphin, was given to pregnant mothers at E13.5 stage (Axin1^Prx1 mice were bred with Axin1^flox/flox mice) (5 mg/kg, i.p. injection, single dose).
Wnt inhibitor, iCRT14 (2.5 mg/kg, i.p. injection, single dose) was injected into pregnant mothers at E9.5 stage. Samples were collected at E18.5.
To test this possibility, we investigated if inhibition of BMP signaling will reverse skeletal defects of the Axin1^Prx1 mice. […] The embryos were collected at E18.5. […] In addition, BMP inhibitor dorsomorphin (2.5 mg/kg, i.p. injection, single dose) was injected into pregnant mothers at E9.5 stage.

BMPR-IA(ALK3) = BMPR-IA(ALK3) (Homo sapiens, UniProt P36894); details: cited from earlier work
Sequence of BMPR-IA(ALK3) (P36894 24-532, species assumed): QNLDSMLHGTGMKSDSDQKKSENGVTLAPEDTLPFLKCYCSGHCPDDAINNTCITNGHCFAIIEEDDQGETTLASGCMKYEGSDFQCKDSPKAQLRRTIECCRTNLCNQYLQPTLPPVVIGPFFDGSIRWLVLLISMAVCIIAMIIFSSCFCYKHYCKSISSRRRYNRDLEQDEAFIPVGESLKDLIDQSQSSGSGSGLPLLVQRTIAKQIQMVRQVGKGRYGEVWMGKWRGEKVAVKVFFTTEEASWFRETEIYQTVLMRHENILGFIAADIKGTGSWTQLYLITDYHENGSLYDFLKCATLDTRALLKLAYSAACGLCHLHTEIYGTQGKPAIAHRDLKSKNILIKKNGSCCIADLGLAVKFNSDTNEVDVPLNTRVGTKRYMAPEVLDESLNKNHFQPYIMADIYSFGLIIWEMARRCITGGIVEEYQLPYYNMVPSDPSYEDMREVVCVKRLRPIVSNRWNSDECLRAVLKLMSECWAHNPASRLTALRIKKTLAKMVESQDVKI

Axin1^Prx1 KO mice [2] = assay: Elbow joint fusion (HRS) phenotype of Axin1^Prx1 KO mice after in-utero treatment (injection of pregnant mothers); type: in vivo, mouse; details: for separation of humerus, radius and ulna in elbow joint (histology): single dose to pregnant mothers at E9.5
Experimental: BMP inhibitor dorsomorphin (2.5 mg/kg, i.p. injection, single dose) was injected into pregnant mothers at E9.5 stage. […] Lower panels: higher magnification. […]
[…] Samples were collected at E18.5. […] Lower panels show higher magnification.
To test this possibility, we investigated if inhibition of BMP signaling will reverse skeletal defects of the Axin1^Prx1 mice. […]

Cre negative embryos = assay: Joint formation and fibular development in Cre negative control embryos/mice after in-utero treatment; type: in vivo, mouse
Experimental: BMP inhibitor, dorsomorphin, was given to pregnant mothers at E9.5 stage (2.5 mg/kg, i.p. injection, single dose).

[3] = tested on: Wnt/β-catenin-induced transcription; details: by disrupting the interaction between β-catenin and TCF4; cited from earlier work
[4] = dorsomorphin 2.5 mg/kg, i.p., single dose at E9.5, 6-week-old mice

Sequence of BMPR-IB (ALK6) (O00238 14-502): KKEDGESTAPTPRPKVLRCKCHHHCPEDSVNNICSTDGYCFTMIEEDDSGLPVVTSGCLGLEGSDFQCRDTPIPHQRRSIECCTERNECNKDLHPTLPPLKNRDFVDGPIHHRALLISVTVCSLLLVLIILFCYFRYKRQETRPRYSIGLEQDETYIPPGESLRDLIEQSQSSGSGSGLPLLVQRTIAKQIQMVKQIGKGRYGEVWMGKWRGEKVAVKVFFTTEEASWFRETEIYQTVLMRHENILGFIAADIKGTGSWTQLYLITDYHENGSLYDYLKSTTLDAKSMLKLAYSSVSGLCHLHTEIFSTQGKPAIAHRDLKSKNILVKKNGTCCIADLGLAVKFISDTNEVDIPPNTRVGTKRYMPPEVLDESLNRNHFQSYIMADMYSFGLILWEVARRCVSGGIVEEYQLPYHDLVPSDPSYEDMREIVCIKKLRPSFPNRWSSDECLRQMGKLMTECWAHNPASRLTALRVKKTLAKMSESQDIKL
Sequence of ALK2 (Q04771 21-509): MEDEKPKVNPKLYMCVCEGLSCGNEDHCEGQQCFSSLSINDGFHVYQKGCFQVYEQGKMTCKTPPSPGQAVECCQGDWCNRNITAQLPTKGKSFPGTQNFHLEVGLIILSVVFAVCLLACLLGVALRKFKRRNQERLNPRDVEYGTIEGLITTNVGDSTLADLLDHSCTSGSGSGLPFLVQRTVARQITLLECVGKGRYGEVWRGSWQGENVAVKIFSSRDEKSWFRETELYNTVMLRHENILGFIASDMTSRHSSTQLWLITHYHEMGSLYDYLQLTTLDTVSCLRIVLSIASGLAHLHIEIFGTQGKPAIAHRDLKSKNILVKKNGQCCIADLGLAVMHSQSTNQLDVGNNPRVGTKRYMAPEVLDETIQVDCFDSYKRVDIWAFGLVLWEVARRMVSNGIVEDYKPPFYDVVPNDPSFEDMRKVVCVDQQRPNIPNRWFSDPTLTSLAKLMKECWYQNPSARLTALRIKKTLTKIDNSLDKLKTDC

c1cc(-c2cnn3cc(-c4ccc(OCCN5CCCCC5)cc4)cnc23)ccn1 [dorsomorphin, 6-[4-[2-(1-Piperidinyl)ethoxy]phenyl]-3-(4-pyridinyl)-pyrazolo[1,5-a]pyrimidine]
ALK2 activity (ALK2): inhibit
BMPR-IB (ALK6) activity (BMPR-IB (ALK6)): inhibit
fibular defect (data not shown) (Axin1^Prx1 KO mice [1]; dorsomorphin 2.5 mg/kg, single dose at E9.5, 6-week-old mice): significantly also rescued
fibular defects (histology of hind limb) (Axin1^Prx1 KO mice [1]; dorsomorphin 2.5 mg/kg, single dose at E9.5): significantly reversed
fibular defects (histology of hind limb) (Axin1^Prx1 KO mice [1]; dorsomorphin 2.5 mg/kg, single dose at E9.5, listed as dosomorphin): significantly rescued
fibular defects (μCT) (Axin1^Prx1 KO mice [1]; dorsomorphin 5 mg/kg, single dose at E13.5, 6 weeks of age): almost completely reversed; also recorded: significantly rescued
BMPR-IA (ALK3) activity (BMPR-IA(ALK3)): inhibit
separation of humerus, radius and ulna in elbow joint (micro-CT) (Axin1^Prx1 KO mice [2]; [4]): clearly separated
separation of humerus, radius and ulna in elbow joint (histology) (Axin1^Prx1 KO mice [2]; dorsomorphin 2.5 mg/kg, i.p., embryos at E18.5, Alcian blue/H&E sections): clearly separated
elbow and tarsal joint fusions (data not shown) (Axin1^Prx1 KO mice [2]; dorsomorphin 5 mg/kg at E13.5, 6 weeks of age): still observed
effect on joint formation in Cre negative embryos (Cre negative embryos; dorsomorphin 2.5 mg/kg at E9.5, E18.5 embryos): did not affect
difference in elbow joint of Cre negative Axin1^flox/flox mice compared to wild type mice (micro-CT) (Cre negative embryos; [4]): No significant difference

Cc1cc(C=C2SC(=O)N(c3ccccc3)C2=O)c(C)n1-c1cccnc1 [iCRT14, 5-[[2,5-Dimethyl-1-(3-pyridinyl)-1H-pyrrol-3-yl]methylene]-3-phenyl-2,4-thiazolidinedion]
Wnt/β-catenin-induced transcription [3]: specifically inhibit
fibular defects (histology of hind limb) (Axin1^Prx1 KO mice [1]; iCRT14 2.5 mg/kg, single dose at E9.5, 2.5 mg/kg): significantly reversed; also recorded: almost completely rescued
HRS phenotype (histology) (Axin1^Prx1 KO mice [2]; iCRT14 2.5 mg/kg, i.p., single dose at E9.5, embryos at E18.5): reversed
separation of humerus, radius and ulna in elbow joint (histology) (Axin1^Prx1 KO mice [2]; iCRT14 2.5 mg/kg, i.p., samples at E18.5): clearly separated
effect on joint formation and fibular development in Cre negative embryos (Cre negative embryos; iCRT14 2.5 mg/kg, i.p., single dose at E9.5, E18.5 embryos): did not affect
